Experimental data published in PMC10675132, “Novel Coumarin Derivatives as Potential Urease Inhibitors for Kidney Stone Prevention and Antiulcer Therapy: From Synthesis to In Vivo Evaluation” (Pharmaceuticals, 2023).
Read-outs that look alike come from different tables or passages of the source.

Target: jack bean urease (Canavalia ensiformis, UniProt P07374)
Assay: indophenol urease inhibition assay ([…] nm)
Type: biochemical

jack bean urease, sequence (P07374 whole entry, looked up): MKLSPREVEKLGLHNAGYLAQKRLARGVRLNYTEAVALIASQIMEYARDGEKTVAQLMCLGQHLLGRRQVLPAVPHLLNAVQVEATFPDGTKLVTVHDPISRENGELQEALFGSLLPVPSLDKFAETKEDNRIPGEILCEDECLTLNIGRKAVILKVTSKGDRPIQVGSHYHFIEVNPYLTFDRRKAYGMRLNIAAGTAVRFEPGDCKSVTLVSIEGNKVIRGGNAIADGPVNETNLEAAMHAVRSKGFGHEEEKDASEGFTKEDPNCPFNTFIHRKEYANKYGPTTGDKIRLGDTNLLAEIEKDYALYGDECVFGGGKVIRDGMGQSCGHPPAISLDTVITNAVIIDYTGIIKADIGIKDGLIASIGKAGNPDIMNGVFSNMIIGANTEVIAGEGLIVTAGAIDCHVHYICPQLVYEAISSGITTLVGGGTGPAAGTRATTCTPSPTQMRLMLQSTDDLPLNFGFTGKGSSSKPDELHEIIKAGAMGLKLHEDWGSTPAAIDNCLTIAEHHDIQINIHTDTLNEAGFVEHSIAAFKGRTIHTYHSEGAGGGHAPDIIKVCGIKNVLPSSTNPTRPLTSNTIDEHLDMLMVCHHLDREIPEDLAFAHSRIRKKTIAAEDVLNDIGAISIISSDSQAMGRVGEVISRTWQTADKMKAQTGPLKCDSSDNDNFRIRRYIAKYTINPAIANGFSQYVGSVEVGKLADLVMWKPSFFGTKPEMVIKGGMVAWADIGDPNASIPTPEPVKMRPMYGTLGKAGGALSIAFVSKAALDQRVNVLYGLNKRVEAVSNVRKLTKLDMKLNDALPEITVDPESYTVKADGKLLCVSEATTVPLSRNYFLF

O=c1cc(/N=C/c2cccc([N+](=O)[O-])c2)c2ccccc2o1 [3a, (E)-4-(3-nitrobenzylideneamino)-2H-chromen-2-one]
IC50: 412 nM

O=c1cc(/N=C/c2ccc([N+](=O)[O-])cc2)c2ccccc2o1 [5a, (E)-4-(4-nitrobenzylideneamino)-2H-chromen-2-one]
IC50: 322 nM

Cc1ccc(O)c(/C=N/c2cc(=O)oc3ccccc23)c1 [7a, (E)-4-(2-hydroxy-5-methylbenzylideneamino)-2H-chromen-2-one]
IC50: 112 nM

NC(N)=S [Thiourea, reference compound]
IC50 (read-out: IC50 ± SEM): 140 nM
